Some test systems named below: MDA-MB-231; Malme-3M; SN12C; HOP-62; KM12; SK-MEL-28; SK-MEL-5; TK-10; EKVX; MOLT-4; SNB-75; SK-OV-3; CAKI-1; UO-31; NCI/ADR-RES; SW-620; A498; U-251; IGROV-1; RPMI-8226.
Holding throughout (assay): NCI-60 cell line screen, 48 h

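Cultured in 96-well plates, cells were exposed to test compound for 48 hours across five concentrations. Here, GI50 denotes the concentration required for 50% inhibition of growth.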 Calls of active or inactive are those of the source. No stated cut-off is given here; in the data, active = GI50 up to about 1.1 µM and inactive = higher. Where only a bound is given, the exact number is not on record here.

With `CC1=C[C@@H]2[C@@H](CC(CO)=C[C@H]3[C@@H]4C(C)(C)[C@]4(OCC(C)C)[C@H](OCC(C)C)[C@@H](C)[C@]23O)C1=O`, the GI50 was 1.39 µM (inactive) in the test with MDA-MB-231; 0.766 µM (active) in the test on Malme-3M; 1.73 µM (inactive) in the test with SN12C; 0.206 µM (active) in the test on HOP-62; 2.16 µM (inactive) in the test with KM12; 1.3 µM (inactive) in the test with SK-MEL-28. Further, the GI50 with SK-MEL-5 was 1.11 µM (active); in the test on TK-10, 1.82 µM (inactive); in the test on EKVX, 1.03 µM (active); in the test on MOLT-4 it was 0.646 µM (active); in the test on SNB-75 it was 2.97 µM (inactive); in the test on SK-OV-3 it was > 8.32 µM (inactive). Besides, the GI50 was 1.38 µM (inactive) with CAKI-1; 2.22 µM (inactive) in the test on UO-31; 2.55 µM (inactive) in the test with NCI/ADR-RES; 1.19 µM (inactive) in the test with SW-620; 1.08 µM (active) with A498; 1.5 µM (inactive) with U-251. In addition, the GI50 in the test on IGROV-1 is 2.01 µM (inactive).

As to `N#Cc1c(N)nc(Nc2cccc3ccccc23)c(C#N)c1C#N`, the GI50 in the test with MDA-MB-231 was 3.73 µM (inactive); in the test with Malme-3M it was > 10 µM (inactive); in the test on SN12C it was 3.42 µM (inactive); in the test with HOP-62, 4.89 µM (inactive); in the test with RPMI-8226 it was 2.61 µM (inactive); in the test on KM12 it was 7.53 µM (inactive). Besides, the GI50 was 3.75 µM (inactive) in the test on SK-MEL-28; 4.43 µM (inactive) in the test on SK-MEL-5; > 10 µM (inactive) in the test on TK-10; > 10 µM (inactive) in the test on EKVX; 3.03 µM (inactive) in the test with MOLT-4; 3.52 µM (inactive) in the test with SNB-75. Further, the GI50 was 3.94 µM (inactive) in the test with SK-OV-3; 6.25 µM (inactive) in the test on CAKI-1; 3.82 µM (inactive) in the test on UO-31; 2.71 µM (inactive) in the test with NCI/ADR-RES; 3.48 µM (inactive) in the test with SW-620; 3.5 µM (inactive) in the test on A498. Also, the GI50 with U-251 was 4.71 µM (inactive); with IGROV-1, > 10 µM (inactive).

On to `N#CCCN(CCC#N)c1ccc(C(=N/c2ccc(Cl)cc2)/N=N/c2ccc(Cl)cc2)cc1`, for which the GI50 in the test with MDA-MB-231 is 19.5 µM (inactive); in the test with SN12C it was 17.7 µM (inactive); with HOP-62 it was 21.7 µM (inactive); in the test on RPMI-8226 it was 47.2 µM (inactive); in the test with KM12, 13.6 µM (inactive); in the test on SK-MEL-28, 59.2 µM (inactive). Also, the GI50 is 10.1 µM (inactive) in the test on SK-MEL-5; 18.5 µM (inactive) with TK-10; 18.7 µM (inactive) with EKVX; 22.5 µM (inactive) in the test on MOLT-4; 20 µM (inactive) in the test with SNB-75; 33 µM (inactive) in the test on SK-OV-3. The GI50 is 16.4 µM (inactive) with CAKI-1; 15.2 µM (inactive) with UO-31; 17.2 µM (inactive) in the test with NCI/ADR-RES; 17.7 µM (inactive) in the test on SW-620; 19.9 µM (inactive) with A498; 19 µM (inactive) with U-251. In the test with IGROV-1, the GI50 is 14.6 µM (inactive).

With `NC(CCCCO)C(=O)O` (centres undefined), the GI50 in the test on MDA-MB-231, in the test with Malme-3M, with HOP-62, in the test on RPMI-8226, in the test on KM12 and in the test with SK-MEL-28 was > 100 µM (inactive) in each case. Also, the GI50 with SK-MEL-5, with TK-10, with EKVX, in the test on SNB-75, in the test with SK-OV-3 and in the test on CAKI-1 was > 100 µM (inactive) in each case. For the same compound, the GI50 in the test with UO-31, in the test on NCI/ADR-RES, in the test with SW-620, with A498, with U-251 and in the test on IGROV-1 was > 100 µM (inactive) each time.

Turning to `Nc1ncnc2c1cnn2Cc1ccc(Cl)cc1`, the GI50 with MDA-MB-231, in the test on SN12C, in the test with KM12, with SK-MEL-5, with TK-10 and in the test with MOLT-4 was > 100 µM (inactive) in each case. For the same compound, the GI50 is 48.4 µM (inactive) in the test with SNB-75; 78.5 µM (inactive) with UO-31; 83 µM (inactive) in the test with NCI/ADR-RES; > 100 µM (inactive) with SW-620; 0.445 µM (active) with A498; > 100 µM (inactive) with U-251.

Take `O=C(O)c1ccccc1CN1CCCC(C(=O)O)C1` (centres undefined): the GI50 in the test on MDA-MB-231, with Malme-3M, with SN12C, in the test with HOP-62, in the test with RPMI-8226 and in the test on KM12 was > 100 µM (inactive) in each case. Moreover, the GI50 in the test on SK-MEL-28, in the test with SK-MEL-5, with TK-10, in the test on EKVX, in the test with MOLT-4 and with SNB-75 was > 100 µM (inactive) each time. For the same compound, the GI50 in the test on SK-OV-3, in the test with CAKI-1, in the test with UO-31, with NCI/ADR-RES, in the test on SW-620 and in the test with A498 was > 100 µM (inactive) in each case. Besides, the GI50 in the test on U-251 and in the test with IGROV-1 was > 100 µM (inactive) throughout.

Take `Cc1ccc(-c2n[nH]c(=O)n2/N=C\c2ccccc2)cc1`: the GI50 with MDA-MB-231 is 60.5 µM (inactive); with Malme-3M, > 91.2 µM (inactive); in the test with SN12C, 34.5 µM (inactive); in the test with HOP-62, 22.6 µM (inactive); in the test on RPMI-8226 it was > 86.3 µM (inactive); with KM12, 54 µM (inactive). Moreover, the GI50 in the test on SK-MEL-28 was > 72.8 µM (inactive); in the test with SK-MEL-5, 75.2 µM (inactive); in the test with TK-10 it was > 59.2 µM (inactive); with EKVX it was 24.9 µM (inactive); in the test with MOLT-4 it was > 79.6 µM (inactive); with SNB-75, 28.6 µM (inactive). In addition, the GI50 in the test on CAKI-1 was 57.9 µM (inactive); in the test with UO-31, > 68.7 µM (inactive); with NCI/ADR-RES, 25.2 µM (inactive); in the test on SW-620, > 100 µM (inactive); in the test with A498, 36.6 µM (inactive); in the test on U-251, 29.8 µM (inactive). For the same compound, the GI50 in the test on IGROV-1 is 47.5 µM (inactive).

With `CC(=O)C1=C(C)NC(=C(C#N)C#N)C(C#N)=C1`, the GI50 in the test on MDA-MB-231, in the test with Malme-3M, with SN12C, in the test with HOP-62, in the test with RPMI-8226 and in the test with KM12 was > 100 µM (inactive) in each case. In addition, the GI50 in the test with SK-MEL-28, in the test with SK-MEL-5, in the test with EKVX, with MOLT-4, with SNB-75 and with CAKI-1 was > 100 µM (inactive) throughout. Moreover, the GI50 in the test on UO-31, in the test with NCI/ADR-RES, with SW-620, in the test on A498, with U-251 and in the test with IGROV-1 was > 100 µM (inactive) throughout.

As for `CCCCCCCCCCCCCCCCCCOP(=O)([O-])OCC[N+](C)(C)C` [OCTADECYLPHOSPHONOCHOLINE], the GI50 is 0.0447 µM (active) with MDA-MB-231; 1.02 µM (active) in the test with Malme-3M; 0.502 µM (active) with SN12C; 0.301 µM (active) in the test with HOP-62; 0.276 µM (active) in the test on RPMI-8226; 0.273 µM (active) with KM12. Also, the GI50 in the test with SK-MEL-28 was 8.22 µM (inactive); with SK-MEL-5, 1.42 µM (inactive); in the test with EKVX, 2.14 µM (inactive); with MOLT-4 it was 0.295 µM (active); in the test with SNB-75, 0.836 µM (active); in the test on SK-OV-3, 5.69 µM (inactive). Also, the GI50 is 0.321 µM (active) with CAKI-1; 1.13 µM (inactive) in the test on UO-31; 1.32 µM (inactive) in the test on NCI/ADR-RES; 0.771 µM (active) in the test with SW-620; 8.41 µM (inactive) with A498; 0.695 µM (active) in the test with U-251. The GI50 with IGROV-1 was 0.614 µM (active).
